According to patent publication US10544151B2, “Compounds and uses thereof” (Kala Pharmaceuticals, Inc., priority 2013, dated 2020):

Experiments:
[1] = Draize-Ocular Irritation assessment; type: in vivo, Dutch-belted rabbits; details: topical I-2 solution formulations, during PK studies
[2] = Physical and chemical stability of I-2 solutions at room temperature; type: physicochemical; details: F127 (0.5%), 20 mM Tris (pH 8)
Description: Solutions of I-2 were formulated with F127 or Tween 80, and under a range of pH values. Briefly, I-2 was first completely solubilized using an acidic solution (0.1 N HCl) at a high concentration of ˜5% (wiv). The final formulation was diluted to a solution consisting of 0.5% (wiv) I-2 into buffered solution containing F127 or Tween 80 as described in Table 5. Following dilution, the pH of the formulations was measured using pH indicator strips (PEHANON) and confirmed to be within expected range (±0.5 units of target pH).
Physical and chemical stability of the solutions at room temperature (20-25° C.) were assessed after 7-10 days (tfinal). Physical instability in a solution can manifest as the precipitation and sedimentation of the drug of interest and excipients over time. To assess physical stability, the formulations at tfinal were first filtered through a 300 kDa modified polyethersulfone filter membrane (Nanosep) to remove any precipitate in the solution. The concentration of I-2 in the filtrates was then measured and compared to that at t=0. The purity of I-2 in the unfiltered solution was also evaluated at tfinal, to further confirm chemical stability. This parameter is defined by the area under the signal peak that is attributed to compound I-2 as a percentage of all peaks reported by in the sample by HPLC (% peak area).

## Cc1cc(C(=O)Nc2cc(Oc3ccc4nc(NC(=O)CN5CC[C@H](N(C)C)C5)cn4n3)ccc2C)n(C)n1 [Compound I-2]
[1]
  Draize-Ocular Irritation: no irritation
[2]
  physical stability of solution: major physical instability
